# Residue numbers refer to the chain shown, from its start. Read-outs that look alike come from different tables or passages of the source.
# Legend:
# [1] = biological target: T1, SH2-ISM/BT2-BF (Zea mays, UniProt P55241+Q947C0, Q96G/E123G/D161G/R331K/K402R/A443R); experiment: Pi inhibition study without 3-PGA, ATP varied (0.1-3 mM) at fixed Pi levels (10-30 mM) and sub-saturating G-1-P (1 mM), fit to mixed-type inhibition equations.; type: biochemical; conditions: read-out: Km (mM), varied substrate ATP, Pi inhibition in the absence of 3-PGA
# T1 construct: SH2-ISM co-expressed with BT2-BF, E. coli, purified
# T1 sequence (Q947C0 1-475 E123G/R331K/K402R): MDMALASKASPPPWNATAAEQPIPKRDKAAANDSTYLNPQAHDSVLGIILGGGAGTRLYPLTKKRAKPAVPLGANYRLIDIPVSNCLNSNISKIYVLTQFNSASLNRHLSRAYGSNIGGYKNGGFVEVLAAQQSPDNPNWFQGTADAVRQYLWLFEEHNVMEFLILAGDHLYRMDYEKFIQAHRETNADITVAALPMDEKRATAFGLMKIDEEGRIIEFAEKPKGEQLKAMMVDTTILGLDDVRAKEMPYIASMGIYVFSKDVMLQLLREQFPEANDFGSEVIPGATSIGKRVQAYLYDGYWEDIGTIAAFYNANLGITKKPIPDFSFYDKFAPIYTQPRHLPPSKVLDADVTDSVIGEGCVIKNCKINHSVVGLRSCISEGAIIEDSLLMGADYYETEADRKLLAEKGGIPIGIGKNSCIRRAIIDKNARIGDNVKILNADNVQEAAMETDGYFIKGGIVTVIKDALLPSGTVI
# T1 sequence (P55241 46-516 Q96G/D161G/A443R): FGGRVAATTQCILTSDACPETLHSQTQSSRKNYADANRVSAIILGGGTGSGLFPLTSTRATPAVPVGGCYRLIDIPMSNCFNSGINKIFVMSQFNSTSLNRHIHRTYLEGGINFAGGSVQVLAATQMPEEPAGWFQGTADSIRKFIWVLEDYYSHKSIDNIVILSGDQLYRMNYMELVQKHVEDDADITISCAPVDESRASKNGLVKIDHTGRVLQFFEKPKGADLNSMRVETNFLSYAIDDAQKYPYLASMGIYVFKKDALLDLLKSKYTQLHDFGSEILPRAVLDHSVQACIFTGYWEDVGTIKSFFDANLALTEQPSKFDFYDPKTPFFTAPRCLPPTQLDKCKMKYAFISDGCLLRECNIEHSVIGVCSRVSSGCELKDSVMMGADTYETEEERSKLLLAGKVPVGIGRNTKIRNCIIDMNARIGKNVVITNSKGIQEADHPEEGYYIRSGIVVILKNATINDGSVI
# Description: (§4) Pi inhibition was carried out in both the presence and absence of 3-PGA with the Pi and substrate concentrations listed below.
# A large α value indicates competitive inhibition whereby the inhibitor prevents binding of the substrate. If the inhibitor enhances the binding of the substrate, α is very small, and the model reduces to an uncompetitive model. […] Special cases include pure non-competitive inhibition, where α = 1 and β = 0 and partial non-competitive inhibition whereby α = 1 and 0 < β < 1.
# (§5) Pi inhibition patterns in the presence and absence of 3PGA were also determined. Pi inhibition patterns were obtained by varying one substrate at several fixed concentrations of Pi, while holding the co-substrate at constant sub-saturating levels.
# [2] = biological target: T2, wt (SH2-WT/BT2-WT) (Zea mays, UniProt P55241+Q947C0); conditions: read-out: ATP Km (absence of 3-PGA)
# Excerpt: (§1) Activity in the absence of the activator 3PGA was examined. While 3PGA is a noted activator for plant AGPase, the mechanism of activation differs for the various AGPases. […] Thus, the term “activation fold” in the literature is merely an activity reported at single fixed substrate concentrations.
# (§2) The small subunit mutant, MP, contains the first 198 amino acids of the small subunit of the maize endosperm enzyme and the last 277 amino acids from the potato tuber enzyme resulting in thirty-three amino acid sites that differ from the maize endosperm enzyme ([Cross et al., 2004]).
# [3] = biological target: T2, wt (SH2-WT/BT2-WT); conditions: read-out: Km (mM), varied substrate ATP, Pi inhibition in the absence of 3-PGA
# Description: as §4, §5
# [4] = biological target: T3, SH2-ISM (Zea mays, UniProt P55241+Q947C0, Q96G/D161G/A443R); experiment: Initial-rate assay without 3-PGA, ATP and G-1-P both varied (0.01-10 mM and 0.1-25 mM), global fit to a sequential mechanism.; type: biochemical; conditions: read-out: ATP Km (absence of 3-PGA)
# T3 construct: SH2-ISM with wild type BT2 (SH2-ISM/BT2-WT), E. coli, purified
# T3 sequence (Q947C0 1-475): T1 sequence (Q947C0 1-475 E123G/R331K/K402R) with G123E, K331R, R402K
# T3 sequence (P55241 46-516 Q96G/D161G/A443R): T1 sequence (P55241 46-516 Q96G/D161G/A443R)
# Excerpt: as §1, §2
# [5] = tested on: T4, MP + SH2-E; experiment: as above; type: biochemical; conditions: read-out: ATP Km (absence of 3-PGA)
# T4 construct: chimeric small subunit MP (maize 198 / potato 277 amino acids) with SH2-E
# Excerpt: as §1, §2
# [6] = biological target: T5, K402R (Zea mays, UniProt P55241+Q947C0, K402R); experiment: Initial-rate assay (PPi formation coupled to NADH oxidation) with varied ATP (0.05-3.0 mM) at 2.0 mM G-1-P, 2.5 mM 3-PGA, 15 mM MgCl2, 50 mM HEPES pH 7.4, hyperbolic fit.; type: biochemical; conditions: read-out: KM ATP
# T5 construct: BT2 variant with wild type SH2, E. coli, purified
# Excerpt: (§3) All saturation plots were hyperbolic. No cooperative effects were seen.
# [7] = biological target: T6, E123G, R331K, K402R (BT2-BF) (Zea mays, UniProt P55241+Q947C0, E123G/R331K/K402R); experiment: as above; type: biochemical; conditions: read-out: KM ATP
# T6 construct: BT2-BF with wild type SH2 (SH2-WT/BT2-BF), E. coli, purified
# T6 sequence (Q947C0 1-475 E123G/R331K/K402R): T1 sequence (Q947C0 1-475 E123G/R331K/K402R)
# T6 sequence (P55241 46-516): T1 sequence (P55241 46-516 Q96G/D161G/A443R) with G51Q, G116D, R398A
# Excerpt: as §3
# [8] = biological target: T7, E123G, R331K (Zea mays, UniProt P55241+Q947C0, E123G/R331K); experiment: as above; type: biochemical; conditions: read-out: KM ATP
# T7 construct: BT2 variant with wild type SH2, E. coli, purified
# Excerpt: as §3
# [9] = biological target: T8, K403E (Zea mays, UniProt P55241+Q947C0, K403E); experiment: as above; type: biochemical; conditions: read-out: KM ATP
# T8 construct: BT2 variant with wild type SH2, E. coli, purified
# Excerpt: as §3
# [10] = biological target: T9, L404H (Zea mays, UniProt P55241+Q947C0, L404H); experiment: as above; type: biochemical; conditions: read-out: KM ATP
# T9 construct: BT2 variant with wild type SH2, E. coli, purified
# Excerpt: as §3
# T2 sequence (Q947C0 1-475): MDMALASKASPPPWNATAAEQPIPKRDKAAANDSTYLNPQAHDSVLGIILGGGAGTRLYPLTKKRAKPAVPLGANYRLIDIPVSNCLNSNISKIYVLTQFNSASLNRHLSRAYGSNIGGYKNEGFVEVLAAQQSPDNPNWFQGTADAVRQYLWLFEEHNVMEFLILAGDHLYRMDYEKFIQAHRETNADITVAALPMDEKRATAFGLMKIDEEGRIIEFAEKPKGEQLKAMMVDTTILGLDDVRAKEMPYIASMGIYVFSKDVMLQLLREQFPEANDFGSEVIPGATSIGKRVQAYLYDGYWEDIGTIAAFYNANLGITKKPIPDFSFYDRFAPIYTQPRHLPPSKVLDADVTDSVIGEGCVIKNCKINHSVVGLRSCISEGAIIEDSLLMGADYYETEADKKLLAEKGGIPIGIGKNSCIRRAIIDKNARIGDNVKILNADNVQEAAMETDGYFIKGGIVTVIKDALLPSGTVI
# T2 sequence (P55241 46-516): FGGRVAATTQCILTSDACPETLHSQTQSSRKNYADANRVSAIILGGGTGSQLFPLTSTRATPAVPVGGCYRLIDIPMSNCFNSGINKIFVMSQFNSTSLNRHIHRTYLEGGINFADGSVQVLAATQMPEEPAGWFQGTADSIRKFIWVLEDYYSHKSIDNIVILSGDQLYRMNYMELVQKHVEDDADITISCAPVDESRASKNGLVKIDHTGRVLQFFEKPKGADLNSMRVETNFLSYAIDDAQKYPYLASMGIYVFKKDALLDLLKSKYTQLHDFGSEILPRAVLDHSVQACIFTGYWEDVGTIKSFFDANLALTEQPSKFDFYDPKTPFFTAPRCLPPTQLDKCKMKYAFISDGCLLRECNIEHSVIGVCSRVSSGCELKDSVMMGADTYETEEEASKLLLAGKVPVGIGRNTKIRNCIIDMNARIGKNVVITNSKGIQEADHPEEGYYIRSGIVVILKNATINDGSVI
# T9 sequence (Q947C0 1-475 L404H): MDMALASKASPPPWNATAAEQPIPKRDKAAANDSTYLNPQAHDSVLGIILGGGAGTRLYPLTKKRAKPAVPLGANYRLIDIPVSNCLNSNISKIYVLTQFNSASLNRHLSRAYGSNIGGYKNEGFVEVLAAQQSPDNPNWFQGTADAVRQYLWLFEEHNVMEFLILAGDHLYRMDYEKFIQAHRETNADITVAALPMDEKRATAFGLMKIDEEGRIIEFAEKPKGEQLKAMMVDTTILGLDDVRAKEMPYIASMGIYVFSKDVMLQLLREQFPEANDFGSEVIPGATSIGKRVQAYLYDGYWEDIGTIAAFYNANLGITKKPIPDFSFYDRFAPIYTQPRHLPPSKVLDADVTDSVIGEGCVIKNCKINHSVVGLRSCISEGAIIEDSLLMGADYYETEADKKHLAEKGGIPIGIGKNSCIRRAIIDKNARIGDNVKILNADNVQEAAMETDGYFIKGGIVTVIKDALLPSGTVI
# T5 sequence (Q947C0 1-475 K402R): as the sequence (Q947C0 1-475 L404H) above, with K402R, H404L counted along it
# T8 sequence (Q947C0 1-475 K403E): as the sequence (Q947C0 1-475 L404H) above, with K403E, H404L counted along it
# T7 sequence (Q947C0 1-475 E123G/R331K): as the sequence (Q947C0 1-475 L404H) above, with E123G, R331K, H404L counted along it
structure (smiles),measurement,setting,value
"Nc1ncnc2c1ncn2[C@@H]1O[C@H](COP(=O)(O)OP(=O)(O)OP(=O)(O)O)[C@@H](O)[C@H]1O [ATP, adenosine 5'-triphosphate]",Km,[1],3.6 ± 1.63 mM
same,Km,[2],4000 µM
same,Km,[3],20.4 ± 10.1 mM
same,Km,[4],100 ± 48 µM
same,Km,[5],320 ± 21 µM
same,Km,[6],79 ± 15 µM
same,Km,[7],60 ± 7 µM
same,Km,[8],80 ± 5 µM
same,Km,[9],69 ± 12 µM
same,Km,[10],132 ± 22 µM
